Results on 1 compound are retold here after patent publication US12590099B2, “Inhibitors of histone deacetylase useful for the treatment or prevention of HIV infection” (Merck Sharp & Dohme LLC, priority 2018, dated 2026).

The assay addresses T1, HDAC6 (Homo sapiens, UniProt Q9UBN7).
T1 sequence (Q9UBN7 1-1215): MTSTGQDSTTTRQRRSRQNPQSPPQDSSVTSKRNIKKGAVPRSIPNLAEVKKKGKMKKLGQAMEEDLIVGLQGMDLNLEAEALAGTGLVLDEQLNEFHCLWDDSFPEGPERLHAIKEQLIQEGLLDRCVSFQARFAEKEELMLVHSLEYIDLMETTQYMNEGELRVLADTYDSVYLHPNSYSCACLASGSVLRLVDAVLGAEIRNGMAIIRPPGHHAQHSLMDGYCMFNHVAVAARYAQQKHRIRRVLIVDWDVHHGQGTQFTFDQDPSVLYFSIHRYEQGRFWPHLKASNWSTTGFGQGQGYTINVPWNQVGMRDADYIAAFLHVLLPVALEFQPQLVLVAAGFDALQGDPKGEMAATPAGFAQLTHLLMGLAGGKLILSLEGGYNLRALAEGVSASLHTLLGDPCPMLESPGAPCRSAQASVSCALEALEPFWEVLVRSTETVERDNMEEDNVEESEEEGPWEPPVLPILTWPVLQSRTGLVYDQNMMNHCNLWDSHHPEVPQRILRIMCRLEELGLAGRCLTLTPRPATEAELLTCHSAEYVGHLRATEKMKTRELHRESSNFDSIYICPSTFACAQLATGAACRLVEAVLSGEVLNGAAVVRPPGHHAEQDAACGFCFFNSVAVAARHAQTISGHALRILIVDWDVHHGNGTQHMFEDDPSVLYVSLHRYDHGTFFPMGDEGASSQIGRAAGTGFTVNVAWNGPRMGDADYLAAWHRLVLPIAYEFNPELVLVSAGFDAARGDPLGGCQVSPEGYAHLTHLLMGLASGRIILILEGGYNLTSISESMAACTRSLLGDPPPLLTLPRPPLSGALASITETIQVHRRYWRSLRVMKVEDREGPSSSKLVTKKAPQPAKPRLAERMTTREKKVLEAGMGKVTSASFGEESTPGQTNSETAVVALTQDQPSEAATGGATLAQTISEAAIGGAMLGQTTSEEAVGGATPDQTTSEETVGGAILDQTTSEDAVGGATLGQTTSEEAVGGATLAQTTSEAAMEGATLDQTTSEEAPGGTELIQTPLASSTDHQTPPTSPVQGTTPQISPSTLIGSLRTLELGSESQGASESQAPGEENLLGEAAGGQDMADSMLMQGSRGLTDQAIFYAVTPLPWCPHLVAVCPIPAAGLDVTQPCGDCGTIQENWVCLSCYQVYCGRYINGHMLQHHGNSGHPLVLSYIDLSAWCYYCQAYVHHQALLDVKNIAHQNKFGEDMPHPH
As to the kind of experiment: Human HDAC enzyme inhibitor Fluor-de-Lys assay, HDAC6. The class given is biochemical.

SMILES strings stand for the structures.

For the compound `CCC(=O)CCCCC[C@H](NC(=O)[C@H]1CC12CCN(C)CC2)c1ncc(-c2cc(OC)ncc2F)o1` [Compound 220], the IC50 was greater than 900 nM.
